Experimental data reported in patent US9801949B2, “Combinations of albumin-based drug delivery systems” (KTB TUMORFORSCHUNGSGESELLSCHAFT MBH, priority 2012, dated 2017).
Marks after values point to notes of the source that are not given here. Numbered stars: 1 amine (or outer) side, 2 acyl side, 3 side chain; on linkers, the order of the positions; unused ones are H or OH. Square brackets hold non-standard residues; d marks the D form. Side chains are listed from the residue outwards. Peptide text beside a SMILES is read from it. * marks the point of attachment. DAMPA = CN(Cc1cnc2nc(N)nc(N)c2n1)c1ccc(C(=O)*)cc1; Hexanoyl(6-maleimido) = O=C1C=CC(=O)N1CCCCCC(=O)*; γGlu = O=C(O)[C@H](CCC(=O)[*:2])N[*:1]

Key:
[1] = test system: MiaPaCa-2 pancreatic carcinoma xenograft; conditions: for toxic death: 7 mice per group, i.v. on days 10, 17, 24, dose per Table 1; for antitumor efficacy (in words): MiaPaCa-2 xenograft, up to end of experiment (day 43), doses as in Table 1; for Tumor volume (day 43): s.c. MiaPaCa-2 xenografts, i.v. on days 10, 17, 24, dose per Table 1, median initial tumor volume 0.062 cm^3
Protocol: In vivo efficacy studies in the MiaPaCa-2 xenograft model were carried out with doxorubicin, the 6-maleimidocaproyl(hydrazone) derivative of doxorubicin (DOXO-EMCH), the albumin-binding prodrug of methotrexate AW054, a combination of the 6-maleimidocaproyl(hydrazone) derivative of doxorubicin (DOXO-EMCH) and the albumin-binding prodrug of methotrexate AW054, doxorubicin, methotrexate and a combination of doxorubicin and methotrexate.
DOXO-EMCH was dissolved in sterile 10 mM sodium phosphate, 5% D-(+)-glucose (pH 5.8) and the respective dose administered intravenously within 30 minutes after dissolution. All doses of DOXO-EMCH and AW054 administered in the studies are stated in doxorubicin and methotrexate equivalents, respectively. Adrimedac® from medac, Germany, was used as the doxorubicin reference (c=2 mg/mL). Methotrexate (Sodium salt from medac) was used as a stock solution (12.5 mg methotrexate/mL in 5% D-Glucose from Braun, sterile). The stock solution AW054 for intravenous administration was 2.0 mg AW054/mL in 5% D-Glucose from Braun, sterile.
For in vivo testing in the MiaPaCa-2 xenograft model, female NMRI: nu/nu mice (Taconic, Denmark) were used. The mice were held in individually ventilaged cages (IVC) under sterile and standardized environmental conditions (25±2° C. room temperature, 50±10% relative humidity, 12 hour light-dark-rhythm). They received autoclaved food and bedding (ssniff, Soest, Germany) and acidified (pH 4.0) drinking water ad libitum. All animal experiments were performed under the auspices of the German Animal Protection Law.
MiaPaCa-2 cells (5×10^6 cells/mouse) were transplanted subcutaneously (s.c.) into the left flank region of each mouse on day zero. Mice were randomly distributed to the experimental groups (7 mice per group). Treatment was initiated at day 10 when the tumors were grown to a size of ˜60 mm^3. Mice were treated on a weekly schedule with 3×6 mg/kg doxorubicin (MTD), 2×125 mg/kg methotrexate (MTD), 3×24 mg/kg DOXO-EMCH (doxorubicin equivalents) (MTD), 3×20 mg/kg AW054 (methotrexate equivalents) (MTD), and a combination of 3×12 mg/kg DOXO-EMCH and 3×10 mg/kg AW054 or a combination of 3×3 mg/kg doxorubicin and 3×62.5 mg/kg methotrexate. All compounds were injected once a week for three weeks (days 10, 17, 24). The injection volume was 0.2 mU20 g body weight. Tumor size was measured twice weekly with a caliper-like instrument in two dimensions. Individual tumor volumes (V) were calculated by the formula V=(length×[width]^2)/2 and related to the values on the first day of treatment (relative tumor volume, RTV). The experiment was ended on day 43. Statistical analysis was performed with the U-test (Mann and Whitney) with p<0.05. The body weight of mice was determined every 3 to 4 days.
Combination therapy with doxorubicin and methotrexate was carried out at in a three weekly schedule (i.v.) at half of their maximum tolerated dose (MTD), i.e. 3×3 mg/kg for doxorubicin and 3×62.5 mg/kg methotrexate. Both DOXO-EMCH and AW054 were administered simultaneously (i.v.) in a three weekly schedule at half of their maximum tolerated dose (MTD), i.e. 3×12 mg/kg for DOXO-EMCH (doxorubicin equivalents) and 3×10 mg/kg (methotrexate equivalents) and at their respective MTDs, i.e. 3×24 mg/kg for DOXO-EMCH (doxorubicin equivalents) and 3×20 mg/kg for AW054 (methotrexate equivalents) (see the following Table 1).

[2] = test system: ovarian carcinoma xenograft model (OVCAR3); conditions: cited from earlier work
[3] = conjugate formed with cysteine-34 of albumin; cited from earlier work
[4] = test system: several xenograft and orthotopic tumor models; conditions: cited from earlier work

Compound | toxic death [1] | antitumor efficacy (in words) [1] | Tumor volume (day 43) [1] | efficacy compared to methotrexate [2] | stability of albumin conjugate in human plasma [3] | efficacy compared to free doxorubicin [4]
C[C@@H](NC(=O)CCCCCN1C(=O)C=CC1=O)C(=O)N[C@@H](Cc1ccccc1)C(=O)N[C@@H](CCCCN)C(=O)N[C@@H](CCCCNC(=O)CC[C@H](NC(=O)c1ccc(N(C)Cc2cnc3nc(N)nc(N)c3n2)cc1)C(=O)O)C(=O)O [AW054, EMC-D-Ala-Phe-Lys-Lys(γ-MTX)-OH] ({Hexanoyl(6-maleimido)}-[dA]FKK([γGlu-DAMPA])-OH) | 0 | only showed moderate antitumor effects | 0.264 ± 0.226* cm^3 | superior compared to methotrexate | stable in human plasma | 
COc1cccc2c1C(=O)c1c(O)c3c(c(O)c1C2=O)CC(O)(C(CO)=NNC(=O)CCCCCN1C(=O)C=CC1=O)CC3OC1CC(N)C(O)C(C)O1 (centres unmarked) [DOXO-EMCH, 6-maleimidocaproyl(hydrazone) derivative of doxorubicin] |  | partial remission | 0.034 ± 0.064* cm^3 |  |  | superior efficacy over free doxorubicin
CN(Cc1cnc2nc(N)nc(N)c2n1)c1ccc(C(=O)N[C@@H](CCC(=O)O)C(=O)O)cc1 [Methotrexate, methotrexate] | 0 | only showed moderate antitumor efficacy | 0.396 ± 0.307* cm^3 |  |  | 
COc1cccc2c1C(=O)c1c(O)c3c(c(O)c1C2=O)C[C@@](O)(C(=O)CO)C[C@@H]3O[C@H]1C[C@H](N)[C@H](O)[C@H](C)O1 [Doxorubicin, doxorubicin] | 0 | only showed moderate antitumor efficacy | 0.190 ± 0.125* cm^3 |  |  | 
